Reference: patent US5567831A, “Non-steroidal sulfatase inhibitor compounds and their method of use” (Duguesne University of the Holy Ghost, priority 1995, dated 1996)

Key:
[1] = molecular target: T1, estrone sulfatase activity in intact MDA-MB-231 breast cancer cells (Homo sapiens, UniProt P08842); experiment: In vitro estrogen sulfatase assay on intact cell monolayers; assay type: cell-based; conditions: intact MDA-MB-231 monolayers, 18 hours at 37° C., [3H]E1S (2 nM), inhibitor 0.1 nM to 1 μM; read-out: apparent I.C. 50, concentration of the inhibitor to inhibit 50% of the sulfatase activity in the MDA-MB-231 cells
T1 construct: host or cells: MDA-MB-231
T1 sequence (P08842 22-583): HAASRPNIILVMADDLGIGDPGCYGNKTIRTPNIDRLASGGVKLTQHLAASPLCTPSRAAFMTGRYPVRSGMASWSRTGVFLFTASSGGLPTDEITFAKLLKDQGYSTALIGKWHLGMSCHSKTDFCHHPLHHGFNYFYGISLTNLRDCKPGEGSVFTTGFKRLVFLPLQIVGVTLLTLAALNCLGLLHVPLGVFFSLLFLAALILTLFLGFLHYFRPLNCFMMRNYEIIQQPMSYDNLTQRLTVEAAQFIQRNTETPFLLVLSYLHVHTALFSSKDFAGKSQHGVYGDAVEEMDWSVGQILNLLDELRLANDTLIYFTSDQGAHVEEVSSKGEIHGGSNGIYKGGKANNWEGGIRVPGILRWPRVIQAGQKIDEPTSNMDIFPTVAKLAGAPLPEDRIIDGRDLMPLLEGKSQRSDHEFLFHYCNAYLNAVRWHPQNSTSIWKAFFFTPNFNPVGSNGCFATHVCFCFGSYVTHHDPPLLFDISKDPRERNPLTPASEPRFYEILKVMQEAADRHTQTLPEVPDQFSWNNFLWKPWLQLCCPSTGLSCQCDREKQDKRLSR
Procedure: The in vitro sulfatase assay on intact cells involved a modification of the procedure of Duncan et al. ["Inhibition of estrone sulfatase activity by estrone 3-methylthiophosphonate", Cancer Res., Vol. 53, pp. 298-303 (1993)]. Intact nearly confluent monolayers of MDA-MB-231 (American Type Culture Collection) breast cancer cells in 6-well tissue-culture plates were washed with Hank's balanced salt solution (HBSS) and incubated for 18 hours at 37° C. with [^3 H]E1 S (5 pmol, 7×10^5 dpm) in serum-free Minimal Essential Medium (MEM) (2.5 ml) with or without test compounds (0.01 nM to 10 μM). After incubation, each dish was cooled and aliquots of the medium (0.5 ml) were pipetted into separate tubes containing 3 ml toluene. The mixture was shaken vigorously for 30 seconds and then centrifuged for 3 minutes at 2500 x g. Previous experiments have shown that >90% of estrone (E1) and <0.1% of […] (E1 S) is removed from the aqueous phase by this treatment. […] Radioactivity was determined using a Packard TriCarb scintillation counter with 50% efficiency for ^3 H. Each batch of experiments included dishes without cells (to assess apparent non-enzymatic hydrolysis of the substrate). […] Estrone sulfatase activity was determined from the amount of ^3 H-E1 tritiated estrone and ^3 H-E2 triated estradiol formed. […]

[2] = rat, in vivo

| SMILES | IC50 [1] [nM] | estrogenicity in uterine weight gain assay [2] |
| --- | --- | --- |
| CCCCCCCCCCCC(=O)NCCc1ccc(OS(N)(=O)=O)cc1 [N-lauroyl-(p-o-sulfamoyl) tyramine (C12), N-lauroyl-(p-o-sulfamoyl) tyramine] | 1 to 2 | – |
| C[C@]12CC[C@@H]3c4ccc(OS(N)(=O)=O)cc4CC[C@H]3[C@@H]1CCC2=O [estrone 3-0 sulfamate] | – | estrogenic |
